In patent publication US8946280B2, “Plant growth regulating compounds” (Syngenta Participations AG, priority 2010, dated 2015):

How the values were obtained:
[1] = system: Orobanche cumana Wallr. seeds (race F; seed lots IN146 and IN153); test: Germination of preconditioned Orobanche cumana seeds on glass fiber filter paper in petri dishes; type: in vivo; conditions: mean, N = 5 × 100 seeds, re-transformed data; for Germination (%): seed lot IN146 raceF, examined 10 days later
Method: The effect of compounds of formula (I) on germination of Orobanche cumana Wallr. seeds was evaluated on glass fiber filter paper (GFFP) in petri dishes. Seeds were preconditioned at moisture and suitable temperature to become responsive to the specific chemical germination stimulants.
Test compounds were dissolved in DMSO (10 000 mg 1^−1) and stored at room temperature in a desiccators with desiccants. The stock solutions were dissolved with deionised water to the appropriate final test concentration.
Seeds of O. cumana race ‘F’ were collected from sunflower fields in Manzanilla (Seville, Spain) in 2006 (seed lot IN146) and 2008 (seed lot IN153) and stored at room temperature. To separate seeds from heavy organic debris, a modified sucrose floatation technique as described by Hartman & Tanimonure (Plant Disease (1991), 75, p. 494) was applied. Seeds were filled into a separation funnel and stirred in water. When seeds floated to the surface, the water fraction containing heavy debris was discarded. Seeds were re-suspended in 2.5M sucrose solution (specific gravity of 1.20) and heavy debris was allowed to settle down for 60 min. After removing debris, seeds were disinfected in 1% sodium hypochlorite solution and 0.025% (v/v) Tween 20 for 2 min. The seeds were decanted onto two layers of cheesecloth, rinsed with sterile deionised water and re-suspended in sterile deionised water. Two ml of the seed suspension containing approximately 150-400 seeds were spread evenly on two layers of sterile glass fiber filter paper disc ([…]) in Petri dishes (Ø9 cm). After wetting the discs with 3 ml sterile deionised water, petri dishes were sealed with parafilm. Seeds were incubated for 10 days at 20° C. in the dark for seed conditioning. The upper disc with conditioned seeds was briefly dried, transferred to a petri dish lined with a dry GFFP disc, and wetted with 6 ml of the appropriate test solution. The compounds of formula (I) were tested at concentrations of 0.001, 0.01, and 0.1 mg 1^−1. The strigolactone analogue GR24 (commercially available as a mixture of isomers) was included as positive control and 0.001% DMSO as negative control. All treatments were tested in five replicates. Seeds were re-incubated at 20° C. in the dark and examined for germination 10 days later. The radicles of germinated seeds were stained for 5 min with blue ink (MIGROS, Switzerland) in 5% acetic acid according to Long et al. (Seed Science Research (2008), 18, p. 125). After staining, seeds were scanned using a flatbed scanner with an optical resolution of 1200 dpi (PULSTEK, OpticPro ST28) or photographed using a camera stand mounted with a digital SLR camera (Canon EOS 5D). Germination of 100 seeds per replicate was evaluated on digital images. Seeds were considered germinated when the radicle protruded from the seed coat. SAS statistical software package version 9.1 was used for analysis of variance (GLM procedure) and multiple comparisons of treatment means (Sidak t-test) based on arcsine transformed percentage germination data.

[2] = Table 8, seed lot IN153, race F, 0.001 mg l^−1
[3] = Table 8, seed lot IN153, race F, 0.01 mg l^−1
[4] = Table 8, seed lot IN153, race F, 0.1 mg l^−1

Compound | Germination (%) ([1]; 0.001 mg l^−1) | Germination (%) ([1]; 0.01 mg l^−1) | Germination (%) ([1]; 0.1 mg l^−1) | Germination % at concentration of 0.001 mg l^−1 [1, 2] | Germination % at concentration of 0.01 mg l^−1 [1, 3] | Germination % at concentration of 0.1 mg l^−1 [1, 4] | other results
CC1=CC(O/C=C2/C(=O)N(C)C3c4ccccc4C[C@H]23)OC1=O (stereo in doubt) [Compound P3, 1-Methyl-(3aR*,8bS*,5′R*)-3-[1-(4-Methyl-5-oxo-2,5-dihydro-furan-2-yloxy)-meth-(E)-ylidene]-3,3a,4,8b-tetrahydro-1H-indeno[1,2-b]pyrrol-2-one] | 68 | 82.4 | 84 | – | – | – | melting point: 130 to 135 °C
CC1=CC(OC=C2C(=O)N(c3nccs3)C3c4ccccc4CC23)OC1=O (stereo not shown) [Compound A26] | – | – | – | 93.9 abc % | 95.4 ab % | 93.9 abc % | –
CC1=C[C@H](O/C=C2/C(=O)O[C@@H]3c4ccccc4C[C@H]23)OC1=O [GR24, reference compound] | 25.9 | 44.9 | 59.8 | – | – | – | –
GR-24 | – | – | – | 84.1 abcde % | 94.1 abc % | 97.0 a % | Germination % at concentration of 0.001 mg l^−1 ([1]; Table 5, seed lot IN146, race F, 0.001 mg l^−1): 21.2 de %; Germination % at concentration of 0.01 mg l^−1 ([1]; Table 5, seed lot IN146, race F, 0.01 mg l^−1): 33.3 cd %; Germination % at concentration of 0.1 mg l^−1 ([1]; Table 5, seed lot IN146, race F, 0.1 mg l^−1): 45.9 bcd %; Germination % at concentration of 0.001 mg l^−1 ([1]; Table 6, seed lot IN146, race F, 0.001 mg l^−1): 17.5 d %; Germination % at concentration of 0.01 mg l^−1 ([1]; Table 6, seed lot IN146, race F, 0.01 mg l^−1): 61.4 c %; Germination % at concentration of 0.1 mg l^−1 ([1]; Table 6, seed lot IN146, race F, 0.1 mg l^−1): 86.6 ab %; Germination % at concentration of 0.001 mg l^−1 ([1]; Table 7, seed lot IN153, race F, 0.001 mg l^−1): 89.5 ab %; Germination % at concentration of 0.01 mg l^−1 ([1]; Table 7, seed lot IN153, race F, 0.01 mg l^−1): 97.2 a %; Germination % at concentration of 0.1 mg l^−1 ([1]; Table 7, seed lot IN153, race F, 0.1 mg l^−1): 96.2 ab %
